Reference: paper PMC3733996 (Bioorganic & medicinal chemistry letters, 2013)

Biological target: serotonin transporter (SERT) (Rattus norvegicus, UniProt P31652)
Assay: Displacement of [3H]citalopram from serotonin transporter in rat brain tissue
Assay type: binding
Conditions: ratio of Ki DAT / Ki SERT

Chain of serotonin transporter (SERT) (P31652 whole entry): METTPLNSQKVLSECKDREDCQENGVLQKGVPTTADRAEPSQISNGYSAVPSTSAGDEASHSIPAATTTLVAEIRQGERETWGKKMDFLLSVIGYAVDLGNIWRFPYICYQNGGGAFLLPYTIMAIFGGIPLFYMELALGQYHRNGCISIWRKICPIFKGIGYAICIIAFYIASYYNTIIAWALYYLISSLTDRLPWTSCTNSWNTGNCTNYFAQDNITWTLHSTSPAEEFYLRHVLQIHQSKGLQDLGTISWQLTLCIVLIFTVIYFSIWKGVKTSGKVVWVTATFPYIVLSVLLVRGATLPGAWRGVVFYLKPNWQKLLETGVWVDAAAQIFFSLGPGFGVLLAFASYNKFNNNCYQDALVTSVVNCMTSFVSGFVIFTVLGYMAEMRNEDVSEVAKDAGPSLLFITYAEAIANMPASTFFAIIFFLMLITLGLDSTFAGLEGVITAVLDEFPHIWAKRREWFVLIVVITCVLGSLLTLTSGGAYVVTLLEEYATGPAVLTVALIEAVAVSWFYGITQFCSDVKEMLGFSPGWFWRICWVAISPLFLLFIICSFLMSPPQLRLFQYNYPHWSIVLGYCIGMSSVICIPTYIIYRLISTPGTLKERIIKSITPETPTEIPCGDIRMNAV

Compound | DAT/SERT
Cl.Clc1ccc(COC2(c3ccc(Cl)c(Cl)c3)CNC2)cc1 [6h] | 1,000
Cl.Clc1ccc(COC2(c3ccc(Cl)cc3)CNC2)cc1 [6e] | 1,100
